# In patent US11730734B2, “Use of ATR and Chk1 inhibitor compounds” (University of Florida Research Foundation, Incorporated, priority 2016, dated 2023):
# “Also recorded” adds a separate entry of the source.
# What was measured:
# ATR = ATR activation (pATR S428 immunofluorescence) in HSV-1 infected U2OS cells; type: cell-based; conditions: for ATR activation (pATR labeling): 5 h
# Protocol: (§1) Cells were plated at 5×10^5 cells per well in 6-well plates and the following morning incubated with inhibitors. Following 1 h pre-incubation with inhibitors, cells were infected with HSV-1 at an MOI=0.1 in a volume of 200 uL for 1 h, viral inoculum removed, and cells overlaid with media containing fresh inhibitors, and cultured for 48 h. Following 48 h, cells and supernatant were harvested by scraping, separated into two Eppendorf tubes, and centrifuged at 10,000×g for 40 min. The cell pellet from one tube was used for extraction of DNA (DNazol according to manufacturer's recommendation, ThermoFisher Sci. catalog no. 10503027) and the second pellet was re-suspended in 200 uL serum-free MEM, freeze-thawed 3×, and virus titered on rabbit skin cells. For HSV-1 titering, rabbit skin cells were plated at 150,000 cells/well of 24-well plates and the following day infected with 10-fold serial dilutions of virus harvested from antiviral experiments. Cells were incubated for 48 h, stained with 1% crystal violet solution, and plaques counted from three separate wells for each experimental sample. Q-PCR was conducted using 20 ng input DNA, TaqMan® Fast Universal PCR 2× Master Mix (Applied Biosystems, catalog no. 4352041) along with TaqMan probes and target-specific primers (Applied Biosystems, Assays by Design part no. 4331348) against HSV-1 polymerase. Samples were run on a StepOnePlus Real-Time PCR System (Applied Biosystems) using fast cycling: denaturation at 95° C. for 20 sec followed by 40 cycles at 95° C. for 1 sec and 60° C. for 20 sec. Additional experimental compounds were also tested as follows: […] Cyclohexamide (Sigma, catalog no. C7698) or DMSO vehicle was added to the overlay media at 50 ug/mL and the infection allowed to proceed for 5 h. (2) For replication inhibition, phosphonoacetic acid (PAA) was added at time of virus adsorption and included in overlay media at 400 ug/mL for 5 h. (3) A final [3 mM] hydroxyurea was added at the time of cell plating and incubated for 18 h. […]
# [1] = system: viral replication centers; test: Viral replication center formation / maturation (immunofluorescence); type: cell-based, HSV-1; conditions: for replication center formation: 5 h
# Protocol: as §1
# 17+HSV-1 = test: Antiviral assay, HSV-1 titering (viral titer / PFU on rabbit skin cells); type: cell-based; conditions: U2OS cells, 17+HSV-1 MOI=0.1, 48 h; ATR inhibitors 10 μM, Chk1 inhibitors 250 nM, aphidicolin 4 μM, KU55933 10 μM, Chk2 inhibitor II 5 μM, NU7441 1 μM
# ICP8 = ICP8 expression in HSV-1 infected cells (data not shown); type: cell-based; conditions: VE-822 10 μM
# Protocol: (§2) U2OS cells were plated onto coverslips at 75,000 cells per well of 24-well plates and the following day infected at an MOI=10 for the indicated times.
# (§3) Thereafter, cells were processed for immunofluorescence in one of two ways that incorporated an Fc receptor blocking step: (1) cells were fractionated in situ by pre-extraction following previously published procedures; briefly, cells were incubated in Cytoskeleton Buffer (CB; 100 mM PIPES, 300 mM sucrose, 100 mM NaCl, 3 mM MgCl2, 1 mM EGTA) for 5 min on ice followed by incubation in Cytoskeleton Stripping Buffer (CSK; 10 mM Tri-HCL pH 7.4, 10 mM NaCl, 3 mM MgCl2, 1% Tween-40, 1% Tween-20, 0.5% sodium deoxycholate) for 5 min on ice. Cells were then washed 3× with PBS and fixed with Streck fixative (150 mM 2-bromo-2-nitro-1,3-propanediol, 108 mM diazolidinyl urea, 10 mM sodium citrate, 50 mM EDTA) for 30 min at RT, washed with PBS, and permeabilized with 0.5% Triton X-100 in 100 mM Tris-HCL pH 7.4 plus 50 mM EDTA for 15 min at RT. Cells were then incubated sequentially with Fc Receptor Blocker (Innovex Biosciences, catalog no. NB309) for 30 min at RT followed by blocking buffer (5% goat serum, 0.1% NP-40, 20 mM Tris-HCL pH 7.4, 150 mM NaCl) for 30 min at RT. (2) In some cases cells were fixed in 3.7% paraformaldehyde in PBS for 5 min at RT followed by blocking with Fc Receptor Blocker and blocking buffer as above. […]
# Chk1 [2] = test: Chk1 activation (pChk1 S345 Western blot) in HSV-1 infected cells; type: cell-based
# Protocol: 5×10^5 cells were plated on 6-well plates and infected the following day with 17syn+(MOI=10). At the indicated times, cells were lysed in buffer containing 1% NP-40, 150 mM sodium chloride, 20 mM Tris-HCL pH 8.0, 2 mM EDTA, and 5% glycerol supplemented with phosphatase and protease inhibitor cocktails (Roche, PhosSTOP tablets; catalog no. 04906837001; ThermoFisherSci., Halt Protease Inhibitor Cocktail, catalog no. 1862209). For SDS-PAGE, 20 ug of protein was mixed with NuPAGE 4×LDS sample buffer (ThermoFisher Sci., catalog no. NP0007) along with NuPAGE Sample Reducing Agent (ThermoFisher Sci., catalog no. NP0004) and run on 4-12% Bis-Tris NuPAGE gels (ThermoFisher Sci.) with NuPAGE MOPS SDS running buffer (ThermoFisher Sci., catalog no. NP000102). Gels were transferred onto 0.22 μm PVDF in Towbin buffer (0.2 M Glycine, 25 mM Tris Base) containing 20% MeOH for 2 h under constant voltage (30V), the membrane blocked with 5% non-fat dry milk (NFDM)-TBST (20 mM Tris-HCL pH 7.4, 150 mM NaCl, 0.1% Tween-20) and probed with antibodies diluted in 1% NFDM-TBST overnight at 4° C. For ATR and ATM western blots, samples were processed as above except DTT (50 mM, Cell Signaling, catalog no. 7016) was used as the reducing agent and samples were run on NuPAGE Novex 3-8% Tris-acetate gels (ThermoFisher Sci.) with NuPAGE Tris-acetate SDS running buffer (ThermoFisher Sci., catalog no. LA0041). […]
# ICP4 = ICP4 expression by immunofluorescence in HSV-1 infected cells; type: cell-based; conditions: VE-822 10 μM, 17+HSV-1 MOI=10, 5 h.p.i.
# Protocol: as §2, §3
# Chk1 [3] = test: Chk1 activation following KD6 infection of permissive Vero cell line K5; type: cell-based; conditions: KD6 infection of Vero cell line K5, cycloheximide
compound,measurement,setting,value
"O=C(O)CP(=O)(O)O [PAA, phosphonoacetic acid]",ATR activation (pATR labeling),ATR; PAA 400 ug/mL from virus adsorption,partially suppressed ATR activation; also recorded: partial suppression; also recorded: partially blocks pATR labeling
same,replication center formation,[1]; PAA 400 ug/mL,retards replication center formation
Cn1cc(-c2[nH]c3cc(NC(=O)[C@H](N)C4CCCCC4)cc4c3c2C=NNC4=O)cn1 [PF477736],"viral titers (HSV-1 PFU, virus production)",17+HSV-1,significantly impact virus production
CNCc1ccc(-c2cc(-c3nc(-c4ccc(S(=O)(=O)C(C)C)cc4)cnc3N)on2)cc1 [VE-822],expression of ICP8,ICP8,blocked expression; also recorded: blocking expression of both ICP4 and ICP8
same,Chk1 activation / phosphorylation,"Chk1 [2]; VE-822 10 μM, 17+HSV-1 MOI=10, Western blot",Chk1 activation was also blocked; also recorded: blocks activation of both ATR and Chk1; also recorded: blocks phosphorylation of Chk1
same,ATR activation (pATR),"ATR; VE-822 10 μM, 17+HSV-1 MOI=10, 5 h.p.i.",blocked ATR activation; also recorded: blocks activation of both ATR and Chk1
same,expression of ICP4,ICP4,blocked expression of ICP4; also recorded: blocking expression of both ICP4 and ICP8
same,maturation of replication centers,"[1]; VE-822, during HSV-1 infection",blocks maturation of replication centers
C[C@@]1(CO)[C@H](O)CC[C@@]2(C)[C@H]1CC[C@H]1C[C@@H]3C[C@@]12CC[C@]3(O)CO [aphidicolin],"viral titers (HSV-1 PFU, virus production)",17+HSV-1,significantly inhibit viral titers; also recorded: significantly impact virus production
C[C@@H]1C[C@@H]([C@H](O)CC2CC(=O)NC(=O)C2)C(=O)[C@@H](C)C1 [cycloheximide],Chk1 activation,Chk1 [2]; cycloheximide,complete suppression
same,ATR activation (pATR labeling),ATR; cycloheximide 50 ug/mL in overlay media,completely blocked ATR activation; also recorded: complete suppression; also recorded: completely suppresses pATR labeling
same,replication center formation,[1]; cycloheximide 50 ug/mL,retards replication center formation
same,Chk1 activation,Chk1 [3],blocked
